Reference: ChEMBL document CHEMBL5579896, “Discovery of 2-Aryl-4-aminoquinazolin-Based LSD1 Inhibitors to Activate Immune Response in Gastric Cancer” (J Med Chem, 2024)
Activity calls are given as the source filed them. No cut-off for these calls is given here.

Legend:
BGC-823 [1] = assay: Cytotoxicity against human BGC-823 cells assessed as reduction in cell viability at 8 uM incubated for 5 days by SRB assay; format: toxicity, cell-based; conditions: bgc-823, 120 h, time 5 day
MFC [2] = assay: Antitumor activity against MFC cells implanted in mouse assessed as increase in infiltration of CD8+ cells at 10 to 40 mg/kg/day, po administered daily for 2 weeks and measured every 2 days by immunohistochemistry assay; format: functional, organism-based; conditions: dose 10-40 mg/kg/day
MFC [3] = assay: Downregulation of PD-L1 expression in MFC cells at 2 to 8 uM by Western blotting analysis; format: functional, cell-based; conditions: Mus musculus, dose 2-8 µM, TDE = time-dependent effect
MFC [4] = assay: Antitumor activity against MFC cells implanted in mouse assessed as reduction in tumor weight at 10 to 40 mg/kg/day, po administered daily for 2 weeks and measured every 2 days; format: functional, organism-based; conditions: dose 10-40 mg/kg/day
MFC [5] = assay: Antitumor activity against MFC cells implanted in mouse assessed as reduction in Ki67 expression at 10 to 40 mg/kg/day, po administered daily for 2 weeks and measured every 2 days; format: functional, organism-based; conditions: dose 10-40 mg/kg/day
[6] = biological target: T1, Amine oxidase [flavin-containing] B (Homo sapiens, UniProt P27338); assay: Inhibition of MAO-B (unknown origin)
T1 sequence (P27338 whole entry): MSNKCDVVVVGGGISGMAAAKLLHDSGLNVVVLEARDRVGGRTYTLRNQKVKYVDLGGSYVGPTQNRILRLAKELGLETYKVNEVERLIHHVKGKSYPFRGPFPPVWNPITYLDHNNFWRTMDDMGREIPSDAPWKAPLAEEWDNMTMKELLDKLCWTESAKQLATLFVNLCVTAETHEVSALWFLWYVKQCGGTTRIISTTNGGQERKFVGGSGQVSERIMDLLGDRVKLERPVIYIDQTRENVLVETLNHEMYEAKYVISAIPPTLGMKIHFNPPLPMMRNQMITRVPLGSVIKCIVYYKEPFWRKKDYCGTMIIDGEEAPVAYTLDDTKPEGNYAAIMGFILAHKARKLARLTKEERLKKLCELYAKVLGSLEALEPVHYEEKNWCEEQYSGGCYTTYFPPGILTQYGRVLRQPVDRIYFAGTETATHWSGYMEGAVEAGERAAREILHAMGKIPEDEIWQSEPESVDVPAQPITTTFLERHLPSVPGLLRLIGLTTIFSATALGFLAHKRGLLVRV

[7] = AUC in ICR mouse at 40 mg/kg, po measured upto 24 hrs by LC-MS/MS analysis; format: ADME, organism-based; conditions: in vivo
BGC-823 [8] = assay: Anticancer activity against LSD-1 knockout human BGC-823 cells cocultured with human monocytes assessed as increase in CD3/CD28 activated T-cell killing response at 2 to 8 uM incubated for 5 days by microscopic analysis; format: functional, cell-based; conditions: dose 2-8 µM, time 5.0 day
MFC [9] = assay: Antitumor activity against MFC cells implanted in mouse assessed as reduction in tumor growth at 10 to 40 mg/kg/day, po administered daily for 2 weeks and measured every 2 days; format: functional, organism-based; conditions: dose 10-40 mg/kg/day
MFC [10] = assay: Downregulation of PD-L1 expression in MFC cells incubated for 5 days by Western blotting analysis; format: functional, cell-based; conditions: Mus musculus, dose 2-8 µM, time 5.0 day
[11] = Cmax in ICR mouse at 40 mg/kg, po measured upto 24 hrs by LC-MS/MS analysis; format: ADME, organism-based; conditions: in vivo
BGC-823 [12] = assay: Effect on H3K4me3 methylation in LSD1 knockout human BGC-823 cells at 2 to 8 uM by Western blotting analysis; format: functional, cell-based; conditions: dose 2-8 µM
BGC-823 [13] = assay: Anticancer activity against human BGC-823 cells cocultured with human monocytes assessed as increase in CD3/CD28 activated T-cell killing response incubated for 5 days by microscopic analysis; format: functional, cell-based; conditions: dose 2-8 µM, time 5.0 day
[14] = Toxicity in mouse implanted with MFC assessed as liver damage at 10 to 40 mg/kg/day, po administered daily for 2 weeks and measured every 2 days by H and E staining based assay; format: organism-based; conditions: in vivo, 336 h, dose 10-40 mg/kg/day
BGC-823 [15] = assay: Effect on H3K4me2 methylation in LSD1 knockout human BGC-823 cells at 2 to 8 uM by Western blotting analysis; format: functional, cell-based; conditions: dose 2-8 µM
[16] = Toxicity in mouse implanted with MFC assessed as spleen damage at 10 to 40 mg/kg/day, po administered daily for 2 weeks and measured every 2 days by H and E staining based assay; format: organism-based; conditions: in vivo, 336 h, dose 10-40 mg/kg/day
BGC-823 [17] = assay: Downregulation of PD-L1 expression in human BGC-823 cells incubated for 5 days by Western blotting analysis; format: functional, cell-based; conditions: dose 2-8 µM, time 5.0 day
[18] = biological target: Epidermal growth factor receptor (Homo sapiens) (UniProt P00533); assay: Inhibition of EGFR (unknown origin)
Chain of Epidermal growth factor receptor (Homo sapiens) (P00533 whole entry): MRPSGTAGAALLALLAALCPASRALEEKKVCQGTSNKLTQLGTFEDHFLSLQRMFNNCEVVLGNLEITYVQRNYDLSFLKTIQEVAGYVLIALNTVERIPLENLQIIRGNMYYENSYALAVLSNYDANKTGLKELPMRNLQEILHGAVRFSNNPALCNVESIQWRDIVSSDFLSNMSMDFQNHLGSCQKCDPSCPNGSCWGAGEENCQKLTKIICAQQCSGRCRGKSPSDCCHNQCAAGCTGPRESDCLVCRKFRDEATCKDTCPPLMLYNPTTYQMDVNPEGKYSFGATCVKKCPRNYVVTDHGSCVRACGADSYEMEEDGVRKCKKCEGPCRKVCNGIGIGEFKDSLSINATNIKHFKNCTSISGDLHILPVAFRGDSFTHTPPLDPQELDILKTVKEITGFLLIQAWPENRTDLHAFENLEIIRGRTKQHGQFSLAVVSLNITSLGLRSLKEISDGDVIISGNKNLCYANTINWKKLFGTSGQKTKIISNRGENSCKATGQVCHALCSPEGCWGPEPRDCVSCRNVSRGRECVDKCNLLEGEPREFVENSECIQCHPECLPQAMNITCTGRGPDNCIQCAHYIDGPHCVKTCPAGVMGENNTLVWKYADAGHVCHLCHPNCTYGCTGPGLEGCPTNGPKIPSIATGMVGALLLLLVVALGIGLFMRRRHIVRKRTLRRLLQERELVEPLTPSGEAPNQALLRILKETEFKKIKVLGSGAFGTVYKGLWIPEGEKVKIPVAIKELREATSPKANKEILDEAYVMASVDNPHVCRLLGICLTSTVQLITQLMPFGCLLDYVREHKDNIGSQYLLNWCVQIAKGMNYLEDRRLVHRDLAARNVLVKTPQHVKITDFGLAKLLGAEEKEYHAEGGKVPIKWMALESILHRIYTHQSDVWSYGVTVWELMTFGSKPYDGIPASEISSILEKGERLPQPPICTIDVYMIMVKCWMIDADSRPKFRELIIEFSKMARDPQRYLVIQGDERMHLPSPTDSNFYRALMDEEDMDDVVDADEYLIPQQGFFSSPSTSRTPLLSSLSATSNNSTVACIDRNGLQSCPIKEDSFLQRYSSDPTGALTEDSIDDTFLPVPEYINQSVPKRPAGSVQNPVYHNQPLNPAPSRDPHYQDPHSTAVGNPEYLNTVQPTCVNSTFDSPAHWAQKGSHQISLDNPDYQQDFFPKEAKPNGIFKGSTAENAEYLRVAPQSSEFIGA

[19] = biological target: T2, MAO-A (Amine oxidase [flavin-containing] A) (Homo sapiens, UniProt P21397); assay: Inhibition of MAO-A (unknown origin) at 10 uM relative to control
T2 sequence (P21397 whole entry): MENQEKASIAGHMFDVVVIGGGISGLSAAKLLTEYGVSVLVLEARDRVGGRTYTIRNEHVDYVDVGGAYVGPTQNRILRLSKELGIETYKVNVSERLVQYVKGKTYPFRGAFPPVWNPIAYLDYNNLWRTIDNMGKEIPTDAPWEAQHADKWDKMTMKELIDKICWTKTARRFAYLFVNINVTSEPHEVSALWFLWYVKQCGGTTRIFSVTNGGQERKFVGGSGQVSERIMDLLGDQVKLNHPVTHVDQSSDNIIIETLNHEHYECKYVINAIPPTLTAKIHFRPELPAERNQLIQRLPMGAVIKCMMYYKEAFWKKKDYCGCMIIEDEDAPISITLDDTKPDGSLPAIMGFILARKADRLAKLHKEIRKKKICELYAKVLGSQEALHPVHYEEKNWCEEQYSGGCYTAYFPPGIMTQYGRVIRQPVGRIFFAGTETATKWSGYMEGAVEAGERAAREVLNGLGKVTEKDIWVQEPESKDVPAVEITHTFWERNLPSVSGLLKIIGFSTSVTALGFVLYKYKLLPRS

SMILES: CCN(CC)c1ccc(Nc2nc(-c3ccc(S(C)(=O)=O)cc3)nc3ccccc23)cc1
- Activity (BGC-823 [1]): Non-Toxic
- Activity (MFC [2]): Active
- Activity (MFC [3]): Tde
- Activity (MFC [4]): Active
- Activity (MFC [5]): Active
- IC50 [6]: > 10 µM
- AUC at 24 h [7]: 2250 ng·h/mL
- Activity (BGC-823 [8]): inactive
- Activity (MFC [9]): Active
- Activity (MFC [10]): Dose-Dependent Effect
- Cmax [11]: 613 ng/mL
- Activity (BGC-823 [12]): inactive
- Activity (BGC-823 [13]): Dose-Dependent Effect
- Activity [14]: Non-Toxic
- Activity (BGC-823 [15]): inactive
- Activity [16]: Non-Toxic
- Activity (BGC-823 [17]): Dose-Dependent Effect
- inhibition [18]: inactive
- inhibition at 10 µM [19]: < 10%
